Data reported in patent US20060252670A1, “Method of reducing drug-induced adverse side effects in a patient” (Intercept Pharmaceuticals Inc., priority 2004, published 2006).
Like-named read-outs stand apart in the source and are kept apart here.

Columns and labels:
[1] = Type II diabetic obese patient switched from rosiglitazone to 6ECDCA plus rosiglitazone; type: in vivo, human; settings: rosiglitazone 8 mg daily 4 weeks then 4 mg daily 6 weeks by mouth
Procedure: The patient is started on a combination of 6ECDCA (150 mg) and rosiglitizone (2 mg) daily by mouth.

[2] = cited from earlier work
[3] = system: liver fibrosis; assay: Gene expression in three rat models of liver fibrosis (porcine serum, BDL, CCl4) treated with FXR ligand; type: in vivo; settings: rats, 3 mg/kg
Procedure: In order to further investigate whether in vivo administration of FXR ligands would modulate the expression of PPARγ, three different models of liver fibrosis were used, i.e., porcine serum administration, bile duct ligation (BDL), and CCL4 intoxication. Male Wistar rats (200-250 g) were obtained from Charles River Breeding Laboratories (Monza, Italy) and maintained on standard laboratory rat chow on a 12 hour light/dark cycle. […] (2004) Gastroenterology 14:1444-1356). […] At the end of the study, rats were sacrificed under anaesthesia with sodium pentobarbital (50 mg/kg, i.p.) and terminally bled via cardiac puncture. The liver was removed for examination and blood samples were taken. In the second model, hepatic fibrosis was induced by bile duct ligation (BDL) of 8-9 weeks old male Wistar rats (see Fiorucci et al. (2004) Gastroenterology 14:1444-1356 and Fiorucci et al. (2004) Hepatology 39:365-75). Sham operated rats (n=6) received the same laparoscopic procedure, except that the bile duct was manipulated, but not ligated and sectioned. A total of 24 animals were operated. […] Animals were then treated for 14 days. […] Control rats were injected i.p. with 100 μl/100 g body weight of paraffin oil alone.

[4] = system: liver fibrosis induced by porcine serum; assay: Liver fibrosis induced by 8-week porcine serum administration to rats: 6-ECDCA, rosiglitazone and combination; type: in vivo, rat; settings: for ALP / ALT / Bilirubin / Liver/b.w.: porcine serum rats, 8 weeks, mean ± SE
Procedure: To investigate whether 6-ECDCA was effective in regulating PPARγ expression, porcine serum-administered rats (6-8 each group) were randomized to receive 1 and 3 mg/kg 6-ECDCA via gavage 5 times a week. Control rats were administered 3% carboxy-methyl cellulose (CMC) by gavage. At the end of the study, rats were sacrificed under anaesthesia with sodium pentobarbital (50 mg/kg, i.p.) and terminally bled via cardiac puncture. The liver was removed for examination and blood samples were taken.
Groups and duration of treatment are described in Table 1 below. Animals were followed for 8 weeks.
Collagen surface density was quantified using a computerized image analysis system (Image Acquisition System Ver. 005, Delta Sistemi, Rome, Italy) (see Fiorucci et al., supra). Hepatic and urinary content of hydroxyproline were determined by HPLC (LC Varian Prostar HPLC, Varian, Rome, Italy) as described in Fiorucci et al. (supra). The ANOVA followed by Dunnett or Bonferroni correction for multiple comparison were applied when appropriate during statistical analysis. EC50 were calculated using Prism III (Graphpad Software. Inc., San Diego, Calif.).

[5] = system: primary cultures of rat HSCs; assay: PPARγ expression in primary cultures of rat HSCs with FXR ligands (qRT-PCR, Western blot); type: cell-based
Procedure: However, whether or not FXR interacts with PPARγ, has so far been unknown. In order to investigate if FXR interacts with PPARγ, in vitro studies were performed on primary cultures of rat HSCs and HSC-T6 (i.e., a rat immortalised HSCs line). Primary rat HSCs were isolated from control and cirrhotic rats according to techniques known in the art. […] Cells were cultured at 37° C. in an atmosphere of 5% CO2 in Dulbecco's modified minimal essential medium (Gibco BRL Life Technologies, Rockville, Md.) containing 10% fetal calf serum (FCS), 2 mM L-glutamine, and 5,000 IU/ml penicillin/[…] streptomycin. […] HSCs were incubated with or without 6-ECDCA, 1 μM, for 24 hours at 37° C. in DMEM. […] The proteins were then transferred to nitrocellulose membranes (Biorad, Hercules, Calif.) and probed with primary antibodies to FXR and PPARγ (Santa Cruz Biotechnology, Santa Cruz, Calif.).
PPARγ expression normally decreases during HSC trans-differentiation. […] To further investigate whether ligands of FXR and PPARγ might cooperate in repressing α1 (1) collagen gene expression, HSC-T6 were exposed to effective concentrations of the two ligands.

## CN(CCOc1ccc(CC2SC(=O)NC2=O)cc1)c1ccccn1 (centres unmarked) [rosiglitazone]
[1]
  edema: signs of increasing peripheral edema
  weight gained since initiating TZD therapy: 6 kg
[2]; 4 mg/day in combination with insulin (Raskin et al. 2001)
  incidence of edema: 13.1%
[2]; 8 mg/day in combination with insulin (Raskin et al. 2001)
  incidence of edema: about 16.2%

## CCc1ccc(CCOc2ccc(CC3SC(=O)NC3=O)cc2)nc1 (centres unmarked) [pioglitazone]
[2]; 15 or 30 mg/day in combination with insulin (Rubin et al. 1999)
  combined incidence of edema: 15.3%

## CC[C@H]1[C@@H](O)[C@@H]2[C@H](CC[C@]3(C)[C@@H]([C@H](C)CCC(=O)O)CC[C@@H]23)[C@@]2(C)CC[C@@H](O)C[C@@H]12 [6-ECDCA]
[3]
  increase of FXR mRNA: 1.8 fold
  increase of SHP mRNA: 4 fold
[4]; 1 mg/kg
  expression of selected pro-fibrogenetic markers (α-SMA, fibronectin, TGFP1): reduced
[4]; 1 mg/kg, in comparison to porcine serum alone
  histological score and liver hydroxyproline content: slightly reduced
[4]; 3 mg/kg
  protection against development of liver fibrosis: effectively protected
[4]; 3 mg/kg alone
  increase of liver PPARγ mRNA: 3-4 fold
[4]; 3 mg/kg, P<0.05 versus control and porcine serum alone
  increase of hepatic expression of UCP-2: 2-4 fold
[4]; 1 and 3 mg/kg, P>0.05 versus control and porcine serum-treated rats
  liver function as measured by plasma ALT, alkaline phosphatase and bilirubin: did not affect liver function
[4]; oral 1 mg/kg (each drug)
  ALP: 26.6 ± 2.5 U/dl
  ALT: 47.4 ± 2.4 U/L
  Bilirubin: 0.3 ± 0.01 mg/dL
  Liver/b.w.: 3.8 ± 0.3%
[4]; oral 3 mg/kg (each drug)
  ALP: 21.8 ± 5.2 U/dl
  ALT: 41.9 ± 5.3 U/L
  Bilirubin: 0.2 ± 0.01 mg/dL
  Liver/b.w.: 2.9 ± 0.2%
[5]; primary HSCs grown seven days, 1 μM
  increase in PPARγ mRNA and protein: 40 fold

## CC(C)c1onc(-c2c(Cl)cccc2Cl)c1COc1ccc(/C=C/c2cccc(C(=O)O)c2)c(Cl)c1 [GW4064, reference compound]
[5]; primary HSCs
  downregulation of PPAR-γ caused by HSCs activation: prevented the downregulation
